Consider two compounds from patent US20230277568A1, “METHOD OF TREATMENT FOR […] PSILOCIN INFUSION” (Eleusis Therapeutics US, Inc., priority 2020, published 2023).

Entries after “also recorded” stand apart in the source; their conditions may differ.

One experiment relates to WKY rats. Kind of experiment: Forced swim test in rat model of depression. The class given is in vivo. The settings on record: FST 21 days after injection. As to the method: A rat model of depression was used to assess the antidepressant effect of psilocin alone or in combination with lorazepam. WKY rats were divided into 3 groups (n=8 animals per group) and treated with (i) 1 mg/kg of psilocin injected as a bolus dose into the tail vein (PSI); (ii) 1.8 mg/kg of lorazepam injected 30 i.p. minutes prior to a 1 mg/kg tail vein injection of psilocin (P+L); or (iii) saline (SAL; as a control group). The dose of lorazepam was chosen to be a moderate/low non-sedating but anxiolytic dose in rats after consultation with an expert in the field of benzodiazepine's effects in rats.
After injection treatment, rats were maintained in their home cage for three weeks (21 days) prior to testing by forced swim test (FST) as described in Hibicke et al., ACS Chem. Neurosci. 2020, 11, 6, 864-871.
Forced Swim Test methodology: During a pre-exposure, rats were placed into a plastic cylindrical tank (114 cm×30.5 cm) that contained 30 cm of water at 28-30° C. The water depth was such that the rats could not support themselves by touching the bottom of the tank with their hind paws, and their tails could not touch the bottom of the tank while keeping their noses above water. After a 15 min swim, the rats were removed, dried with paper towels, and replaced in their home cages. Fresh water was used for each animal. For the testing, a video camera was mounted to the side of the tank, and the rats were exposed to a 5 min swim under the conditions described above and then removed, dried with paper towels, and returned to their home cages. The 5 min swim was recorded for later scoring for immobility, swimming, and climbing. FST scoring was performed by a trained scorer. Immobility was defined as no active attempts to escape while maintaining a floating posture in which the rats make only the movements necessary to keep their heads above water. Swimming was defined as actively attempting escape with motions directed outward against the wall of the cylinder. Climbing was defined as actively attempting escape with motions directed upward against the wall of the cylinder.

A further experiment deals with 5-HT2A receptor (Homo sapiens, UniProt P28223). To be noted: background statement; cited from earlier work.
The mark [1] stands for this setting: 1.8 mg/kg lorazepam i.p. 30 minutes prior to 1 mg/kg i.v. psilocin.

5-HT2A receptor, sequence (P28223 whole entry): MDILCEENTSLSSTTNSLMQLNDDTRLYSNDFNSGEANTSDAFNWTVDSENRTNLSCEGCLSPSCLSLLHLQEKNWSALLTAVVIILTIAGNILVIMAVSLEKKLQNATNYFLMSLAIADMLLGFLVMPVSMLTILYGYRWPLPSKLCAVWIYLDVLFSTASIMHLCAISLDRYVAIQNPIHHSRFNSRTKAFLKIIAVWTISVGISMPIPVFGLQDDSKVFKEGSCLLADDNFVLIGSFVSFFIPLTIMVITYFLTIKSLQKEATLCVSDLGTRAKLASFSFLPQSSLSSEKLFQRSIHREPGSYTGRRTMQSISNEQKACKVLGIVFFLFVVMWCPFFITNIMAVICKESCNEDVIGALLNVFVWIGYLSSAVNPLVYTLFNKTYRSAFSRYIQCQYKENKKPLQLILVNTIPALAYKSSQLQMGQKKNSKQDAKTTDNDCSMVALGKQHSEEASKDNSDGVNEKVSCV

In the case of `O=C1Nc2ccc(Cl)cc2C(c2ccccc2Cl)=NC1O` (centres unmarked) [Lorazepam], the “effect of lorazepam pretreatment on the effects of psilocin, immobility measure” value is “slight but significant effect to blunt the effects of psilocin” in the experiment on WKY rats (setting [1]) and “slight, but significant effect” in the experiment with WKY rats (1.8 mg/kg lorazepam i.p. 30 minutes prior to 1 mg/kg i.v. psilocin, listed as lorazepam). The “effect of lorazepam pretreatment on the effects of psilocin, swimming behavior” value with WKY rats (setting [1]) is “no significant effect”.
Turning to `CN(C)CCc1c[nH]c2cccc(O)c12` [psilocin, 4-hydroxy-N,N-dimethyltrypamine], the “affinity for the 5-HT2A receptor” value at 5-HT2A receptor was “high affinity”. In addition, the “antidepressant-like behaviors in forced swim test” value with WKY rats (1 mg/kg psilocin single i.v. bolus (tail vein), 1 mg/kg) is given as “as efficacious in producing long-lasting antidepressant-like behaviors in this model as a single i.p. administration of psilocybin of the same dose; also recorded: as efficacious in producing long-lasting antidepressant-like behaviors in our model as a single i.p. administration of psilocybin of the same dose”.
